In patent US20240270762A1, “PENICILLIN-BINDING PROTEIN INHIBITORS” (priority 2021, published 2024):
Converted amounts (≈) assume the structure as drawn. Read-outs that look alike come from different tables or passages of the source.

How the values were obtained:
P. aeruginosa CDC-0090 = test: microbe, parasite or virus in culture; assay type: cell-based; conditions: Pseudomonas aeruginosa, CDC0090, read-out: Minimum inhibitory concentration, P. aeruginosa CDC-0090
P. aeruginosa ATCC 27853 = test: microbe, parasite or virus in culture; assay type: cell-based; conditions: Pseudomonas aeruginosa, ATCC27853, read-out: Minimum inhibitory concentration, P. aeruginosa ATCC 27853
P. aeruginosa CDC-0054 = test: microbe, parasite or virus in culture; assay type: cell-based; conditions: Pseudomonas aeruginosa, CDC0054, read-out: Minimum inhibitory concentration, P. aeruginosa CDC-0054
[1] = test system: B. thailandensis ATCC 700388; test: microbe, parasite or virus in culture; assay type: cell-based; conditions: Burkholderia thailandensis, ATCC700388, read-out: Minimum inhibitory concentration (MIC), B. thailandensis ATCC 700388
B. pseudomallei Bp82 = test: microbe, parasite or virus in culture; assay type: cell-based; conditions: Burkholderia pseudomallei, BP82, read-out: Minimum inhibitory concentration, B. pseudomallei Bp82
[2] = test system: P. aeruginosa (ΔmexAB-oprM); test: Broth microdilution MIC in iron-depleted CAMHB (IDM); assay type: cell-based; conditions: Pseudomonas aeruginosa, read-out: Minimum inhibitory concentration, P. aeruginosa ΔmexAB-oprM
P. aeruginosa CDC-0095 = test: microbe, parasite or virus in culture; assay type: cell-based; conditions: Pseudomonas aeruginosa, CDC0095, read-out: Minimum inhibitory concentration, P. aeruginosa CDC-0095
P. aeruginosa CDC-0110 = test: microbe, parasite or virus in culture; assay type: cell-based; conditions: Pseudomonas aeruginosa, CDC0110, read-out: Minimum inhibitory concentration, P. aeruginosa CDC-0110
P. aeruginosa ATCC 35151 = test: microbe, parasite or virus in culture; assay type: cell-based; conditions: Pseudomonas aeruginosa, ATCC35151, read-out: Minimum inhibitory concentration, P. aeruginosa ATCC 35151
A. baumannii PBP1a = molecular target: T1, A. baumannii PBP1a (Acinetobacter baumannii, UniProt A0ABX6CK30); test: Bocillin-FL competition binding via gel filtration, A. baumannii PBP1a; conditions: competition binding assay using Bocillin-FL via gel filtration; read-out: A. baumannii PBP1a Potency
T1 sequence (A0ABX6CK30 1-851): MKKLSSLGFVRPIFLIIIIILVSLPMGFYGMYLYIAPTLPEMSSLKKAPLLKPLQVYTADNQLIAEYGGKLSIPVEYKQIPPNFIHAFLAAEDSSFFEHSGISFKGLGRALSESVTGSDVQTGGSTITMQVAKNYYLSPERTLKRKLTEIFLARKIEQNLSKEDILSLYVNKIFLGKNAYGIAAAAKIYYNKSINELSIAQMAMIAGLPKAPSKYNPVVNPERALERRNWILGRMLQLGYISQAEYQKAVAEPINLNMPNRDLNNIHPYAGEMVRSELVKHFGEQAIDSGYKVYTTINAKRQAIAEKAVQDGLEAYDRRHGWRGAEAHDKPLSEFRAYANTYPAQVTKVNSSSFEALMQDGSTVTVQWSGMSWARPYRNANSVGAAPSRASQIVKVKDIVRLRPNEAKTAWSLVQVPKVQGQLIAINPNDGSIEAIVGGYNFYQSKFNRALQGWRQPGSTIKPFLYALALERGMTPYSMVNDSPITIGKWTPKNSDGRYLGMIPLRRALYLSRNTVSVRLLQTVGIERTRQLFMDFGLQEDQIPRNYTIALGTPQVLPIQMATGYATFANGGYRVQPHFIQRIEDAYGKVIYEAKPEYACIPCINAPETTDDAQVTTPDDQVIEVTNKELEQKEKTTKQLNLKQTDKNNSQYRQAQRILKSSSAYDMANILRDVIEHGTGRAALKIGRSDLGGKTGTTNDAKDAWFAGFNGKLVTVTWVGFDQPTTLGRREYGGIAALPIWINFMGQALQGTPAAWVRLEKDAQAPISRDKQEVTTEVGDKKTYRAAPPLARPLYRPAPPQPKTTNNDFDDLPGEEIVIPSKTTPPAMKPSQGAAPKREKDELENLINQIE
How it was run: (§1)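 Competitive equilibrium binding; reporter Bocillin-FL. PBP + inhibitor (titration) pre-incubated → Bocillin-FL, 15 min → gel filtration → fluorescence. EC50 from Hill fit of fraction bound vs [inhibitor].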

A. baumannii PBP2 = A. baumannii PBP2 (Acinetobacter baumannii, UniProt D0C8Z9); test: Bocillin-FL competition binding via gel filtration, A. baumannii PBP2
A. baumannii PBP2, sequence (D0C8Z9 whole entry): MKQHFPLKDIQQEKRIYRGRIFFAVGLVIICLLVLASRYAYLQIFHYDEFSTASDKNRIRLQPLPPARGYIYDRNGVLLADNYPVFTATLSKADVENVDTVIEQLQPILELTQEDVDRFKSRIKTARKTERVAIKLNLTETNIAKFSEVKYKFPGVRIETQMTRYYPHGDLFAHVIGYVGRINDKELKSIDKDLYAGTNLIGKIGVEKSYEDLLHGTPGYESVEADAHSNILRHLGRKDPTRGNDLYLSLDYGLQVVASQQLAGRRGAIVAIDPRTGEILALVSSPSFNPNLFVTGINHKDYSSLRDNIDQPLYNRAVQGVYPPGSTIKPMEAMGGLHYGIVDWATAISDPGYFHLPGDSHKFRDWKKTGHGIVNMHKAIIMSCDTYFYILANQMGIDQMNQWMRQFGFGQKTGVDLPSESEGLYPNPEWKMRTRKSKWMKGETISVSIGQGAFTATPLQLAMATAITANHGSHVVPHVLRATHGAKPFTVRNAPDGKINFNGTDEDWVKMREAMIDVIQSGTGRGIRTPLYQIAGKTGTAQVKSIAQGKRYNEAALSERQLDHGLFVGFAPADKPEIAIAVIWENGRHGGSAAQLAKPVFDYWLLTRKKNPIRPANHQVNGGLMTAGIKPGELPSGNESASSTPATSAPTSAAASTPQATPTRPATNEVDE
How it was run: as §1

[3] = test system: B. humptydooensis ATCC BAA-2767; test: microbe, parasite or virus in culture; assay type: cell-based; conditions: Burkholderia humptydooensis, ATCCBAA2767, read-out: Minimum inhibitory concentration (MIC), B. humptydooensis ATCC BAA-2767

| SMILES | MIC (P. aeruginosa CDC-0090) | MIC (P. aeruginosa ATCC 27853) | MIC (P. aeruginosa CDC-0054) | MIC [1] | MIC (B. pseudomallei Bp82) | MIC [2] | MIC (P. aeruginosa CDC-0095) | MIC (P. aeruginosa CDC-0110) | MIC (P. aeruginosa ATCC 35151) | EC50 (A. baumannii PBP1a) | EC50 (A. baumannii PBP2) | MIC [3] | MIC ([2]; iron-depleted CAMHB (IDM), […]) |
| --- | --- | --- | --- | --- | --- | --- | --- | --- | --- | --- | --- | --- | --- |
| O=C(O)c1c(F)ccc2c1OB(O)[C@@H](NC(=O)[C@H](NC(=O)N1CCN(C3CCN(Cc4cncc(O)c4)CC3)C1=O)c1cc(F)c(O)c(O)c1Cl)C2 (single isomer, unassigned) [Example 614] | < 1 mg/L | < 1 mg/L | 2 to 4 mg/L (≈ 2.68 to 5.37 µM) | < 1 mg/L | < 1 mg/L | < 1 mg/L | 2 to 4 mg/L (≈ 2.68 to 5.37 µM) | < 1 mg/L | < 1 mg/L | 10 to 50 µM | 10 to 50 µM | < 1 mg/L |  |
| NCc1cc(O)cc(CN2CCC(N3CCN(C(=O)N[C@@H](C(=O)N[C@H]4Cc5ccc(F)c(C(=O)O)c5OB4O)c4cc(F)c(O)c(O)c4Cl)C3=O)CC2)c1 (single isomer, unassigned) [Example 617] | < 1 mg/L | < 1 mg/L | < 1 mg/L | < 1 mg/L | < 1 mg/L | < 1 mg/L | < 1 mg/L | < 1 mg/L | < 1 mg/L | 10 to 50 µM | 50 to 250 µM | < 1 mg/L |  |
| Nc1ccc(CN2CCC(N3CCN(C(=O)N[C@@H](C(=O)N[C@H]4Cc5ccc(F)c(C(=O)O)c5OB4O)c4cc(F)c(O)c(O)c4Cl)C3=O)CC2)cn1 (single isomer, unassigned) [Example 618] | < 1 mg/L | < 1 mg/L | < 1 mg/L | < 1 mg/L | < 1 mg/L | < 1 mg/L | 2 to 4 mg/L (≈ 2.69 to 5.38 µM) | < 1 mg/L | < 1 mg/L | 10 to 50 µM | 10 to 50 µM | < 1 mg/L |  |
| O=C(O)c1c(F)ccc2c1OB(O)[C@@H](NC(=O)[C@H](NC(=O)N1CCN(C3CCN(Cc4ccnnc4)CC3)C1=O)c1cc(F)c(O)c(O)c1Cl)C2 [Example 601, (R)-3-((R)-2-(2-chloro-5-fluoro-3,4-dihydroxyphenyl)-2-(2-oxo-3-(1-(pyridazin-4-ylmethyl)piperidin-4-yl)imidazolidine-1-carboxamido)acetamido)-7-fluoro-2-hydroxy-3,4-dihydro-2H-benzo[e][1,2]oxaborinine-8-carboxylic acid] | 2 to 4 mg/L (≈ 2.74 to 5.48 µM) | < 1 mg/L | < 1 mg/L | < 1 mg/L |  | < 1 mg/L | 2 to 4 mg/L (≈ 2.74 to 5.48 µM) | < 1 mg/L | < 1 mg/L | < 10 µM | 10 to 50 µM | < 1 mg/L |  |
| O=C(O)c1c(F)ccc2c1OB(O)[C@@H](NC(=O)[C@H](NC(=O)N1CCN(C3CCN(Cc4ccncn4)CC3)C1=O)c1cc(F)c(O)c(O)c1Cl)C2 [Example 602, (R)-3-((R)-2-(2-chloro-5-fluoro-3,4-dihydroxyphenyl)-2-(2-oxo-3-(1-(pyrimidin-4-ylmethyl)piperidin-4-yl)imidazolidine-1-carboxamido)acetamido)-7-fluoro-2-hydroxy-3,4-dihydro-2H-benzo[e][1,2]oxaborinine-8-carboxylic acid] | < 1 mg/L | < 1 mg/L | < 1 mg/L | < 1 mg/L | < 1 mg/L | < 1 mg/L | 2 to 4 mg/L (≈ 2.74 to 5.48 µM) | < 1 mg/L | < 1 mg/L | < 10 µM | 10 to 50 µM | < 1 mg/L |  |
| NCc1cccc(C(=O)N2CCC(N3CCN(C(=O)N[C@@H](C(=O)N[C@H]4Cc5ccc(F)c(C(=O)O)c5OB4O)c4cc(F)c(O)c(O)c4Cl)C3=O)CC2)c1 [Example 603, (R)-3-((R)-2-(3-(1-(3-(aminomethyl)benzoyl)piperidin-4-yl)-2-oxoimidazolidine-1-carboxamido)-2-(2-chloro-5-fluoro-3,4-dihydroxyphenyl)acetamido)-7-fluoro-2-hydroxy-3,4-dihydro-2H-benzo[e][1,2]oxaborinine-8-carboxylic acid] | 2 to 4 mg/L (≈ 2.59 to 5.19 µM) | < 1 mg/L | < 1 mg/L | < 1 mg/L |  |  | 2 to 4 mg/L (≈ 2.59 to 5.19 µM) | < 1 mg/L | < 1 mg/L | 10 to 50 µM | 10 to 50 µM | < 1 mg/L | < 1 mg/L |
| Nc1cc(CN2CCC(N3CCN(C(=O)N[C@@H](C(=O)N[C@H]4Cc5ccc(F)c(C(=O)O)c5OB4O)c4cc(F)c(O)c(O)c4Cl)C3=O)CC2)ccn1 [Example 619, (R)-3-((R)-2-(3-(1-((2-aminopyridin-4-yl)methyl)piperidin-4-yl)-2-oxoimidazolidine-1-carboxamido)-2-(2-chloro-5-fluoro-3,4-dihydroxyphenyl)acetamido)-7-fluoro-2-hydroxy-3,4-dihydro-2H-benzo[e][1,2]oxaborinine-8-carboxylic acid] | < 1 mg/L | < 1 mg/L | < 1 mg/L | < 1 mg/L |  | < 1 mg/L | < 1 mg/L | < 1 mg/L | < 1 mg/L | < 10 µM | 10 to 50 µM | < 1 mg/L |  |
